For orientation: pIC50 means the negative decadic logarithm of the IC50, by convention in mol/L.

These results are taken from patent publication US7129250B2, “Neuroprotective and anti-proliferative compounds” (Aegera Therapeutics Inc., priority 2000, dated 2006).

pIC50: −log10 of the molar value.

Series [1] concerns CGNs. In words: Cisplatin Killing of CGNs. The format is cell-based, CD1 mice. The note with it: for pIC50: assayed 48 hours after final drug treatment. On the procedure: Cisplatin has been used extensively in the treatment of various cancers. One dosblimiting side effect of this chemotherapeutic agent is related to hearing loss as a result of its toxicity to auditory neurons and loss of feeling in the extremities. Cisplatin induces apoptosis to both cultured CGN and cortical neurons.
CGNs were harvested from day 8/9 post-natal CD1 mice, plated on Poly-D-Lycine coated plates and incubated for 6 days at 37° C. under 5% CO2. The cells were treated with media containing drug and cisplatin […].

The test system of series [2] is CGNs. Put plainly: High/Low Potassium (HK/LK) assay in CGNs. The format is cell-based. The note with it: HK/LK switch, drug 24 h pre-treatment, assayed 16 h after media change, concentration at which cell death was inhibited by 50%. On the procedure: Cultured CGNs which are maintained in a medium containing 26 mM potassium (high K^+ or HK) undergo cell death when the medium is changed to one containing 5 mM potassium (low K^+ or LK). HK maintains the cells in a highly polarized state, duplicating that of fully innervated neurons. The switch to LK (5 mM is more representative of physiological conditions) results in depolarization of the cells, mimicking the loss of neuronal conductivity. […] As these killer genes are turned on by various types of neuronal insult as observed in AD, PD, and stroke, HK/LK is a general in vitro model for neuronal degradation, blanketing a wide range of neurodegenerative diseases. Compounds that protect against HK/LK in CGNs would therefore be efficacious in treatment and/or prevention of various neurodegenerative disease states.
CGNs were harvested from day 8/9 post-natal CD1 mice, plated on Poly-D-Lycine coated plates and incubated for 6 days at 37° C., with […] potassium, under 5% CO2. Pretreated cells were treated with drug 24 hours prior to changing the media to one containing […] potassium and drug. Cells were assayed 16 hours after the final media change using cell TITER96 (Promega).

A further series concerns HIAP1 mRNA in LAN5 cells. Put plainly: LAN5 HAIP1 Down Regulators (RNA levels). The format is cell-based. Conditions: HIAP1 RNA level vs control = 1.0; 24 hours drug. On the procedure:
LAN5 cells were grown in growth media. Cells were plated at cells 50,000 per well in 96 cells per 96 wells. Five days latter drug was added and the cells were liced 24 hours latter using RLT buffer.

For series [3], the system named is CGNs. In words: Ceramide Killing of CGNs. The series is classed as cell-based, CD1 mice. Conditions: ceramide 100 uM. From the text: Ceramide is a native […] found in most mammalian and human cells. The upregulation of endogenous ceramide has been linked to caspase 1 (ICE) induced apoptosis (Suzuki, A. et al. Exp. Cel. Res., 1997, 233, 41). In a similar fashion, the addition of ceramide to cultured CGNs results in caspase induced apoptosis, and is therefore considered an effective in vitro model for the various neurodegenerative diseases described above, which are characterized by caspase induced apoptosis, as observed in stroke models. Addition of selected compounds of the formula I through III, 24 hours prior to the addition of ceramide, to cultured CGNs provided protection against apoptosis, with 10 to 20% of the cells being saved at 1–10 μM drug concentrations (see Example 114).
CGNs were harvested from day 8/9 post-natal CD1 mice, plated on Poly-D-Lycine coated plates and incubated for 6 days at 37° C. under 5% CO2. Cells were pretreated with drug 24 hours prior to ceramide (100 uM) and drug addition.

For another series, the system named is SHSY-5Y cells. In words: Etoposide Killing of SHSY-5Y. The series is classed as cell-based. The note with it: etoposide 32 uM. On the procedure: SHSY-5Y cells were grown in growth media. Cells are placed at 50,000 cells per 96 well. Four days latter the cells were treated with drug for 48 hours prior to etoposide (32 uM) treatment. On day 6 media was changed to that containing etoposide and drug for 4 hours, at which point the media was changed to media containing drug only. Cells are allowed to survive overnight and then assessed for viability with metabolic activity measured (WST-1-Beohringer Mannheime), as shown in TABLE 13.

The next series deals with Jurkat cells. Put plainly: Killing of cultured Jurkats with and without anti-Fas. The format is cell-based, Human. Conditions: for Survival % With Anti-Fas: with anti-Fas (5 ng/mL). On the procedure:
Jurkats are a T-cell derived lymphoma cell line which expresses both FAS receptor and Fas-L. These cells, however, are only mildly sensitive to Fas-L/anti-Fas induced apoptosis. Select compounds were tested for their ability to kill Jurkats. Additionally, we investigated the ability of select compounds to sensitize the Jurkats to anti-Fas mediated apoptosis.
Human lymphoma jurkat cells were cultured in suspension in 24 well plates. Jurkat cell were treated with test compounds either alone or in the presence of suboptimal doses of anti-Fas antibody. After 18 hours of treatment cell death was assessed by Facs. Cells were incubated with propidium iodide and the percentage of cells that incorporated the stain was counted by Facs.

In turn, `COc1ccc2c(ccn2C2=C(c3c[nH]c4ccccc34)C(=O)NC2=O)c1` [Compound 3, 3-(5-Methoxyindol-1-yl)-4-(1H-indol-3-yl)-1H-pyrrole-2,5-dione] showed a pIC50 in the series with CGNs [1] (Mus musculus) of 5.00.

For `COc1ccc2c(c1)CC1c3[nH]c4ccccc4c3C3=C(C(=O)NC3=O)N21` (stereo not shown) [Compound 34], the negative-log IC50 (pIC50) with CGNs [2] and in the series on CGNs [1] was 5.00 throughout.

Take `COc1ccc2c(c1)cc1c3[nH]c4ccccc4c3c3c(n21)C(=O)NC3=O` [Compound 48]: the pIC50 was 5.52 in the series on CGNs [2] and 5.00 in the series with CGNs [1].

As for `O=C1C=C(c2c[nH]c3ccc(Br)cc23)C(=O)N1` [Compound 56, 3-(1H-5-bromoindol-3-yl)-1H-pyrrole-2,5-dione], the “Fold Induction” value with HIAP1 mRNA in LAN5 cells was found to be 0.31.

Consider `O=C1C=C(c2cn(C(=O)c3ccccc3)c3ccc(Br)cc23)C(=O)N1` [Compound 59, 3-(N-benzoyl-5-bromoindol-3-yl)-1H-pyrrole-2,5-dione], for which the “Fold Induction” value in the series on HIAP1 mRNA in LAN5 cells is listed as 0.40.

With `Cc1ccc(S(=O)(=O)n2cc(C3=CC(=O)NC3=O)c3cc(Br)ccc32)cc1` [Compound 60, 3-(N-(p-toluenesulfoiiyl)-5-bromoindol-3-yl)-1H-pyrrole-2,5-dione], the negative logarithm of the IC50 (pIC50) in the series on CGNs [2] is 5.00. Further, the “Fold Induction” value with HIAP1 mRNA in LAN5 cells is given as 0.13.

In the case of `O=C1C=C(c2cn(S(=O)(=O)c3cccc4ccccc34)c3ccc(Br)cc23)C(=O)N1` [Compound 61, 3-(N-(1-naphthylenesulfonyl)-5-bromoindol-3-yl)-1H-pyrrole-2,5-dione], the “% CGN Survival” value in the series on CGNs [3] (drug 100 nM) is listed as 0%; in the series on CGNs [3] (drug 1 μM), 5.1%. The “Fold Induction” value with HIAP1 mRNA in LAN5 cells is on record as 0.16.

Take `O=C1C=C(c2cn(S(=O)(=O)c3ccc4ccccc4c3)c3ccc(Br)cc23)C(=O)N1` [Compound 62, 3-(N-(2-naphthylenesulfonyl)-5-bromoindol-3-yl)-1H-pyrrole-2,5-dione]: the “Fold Induction” value in the series with HIAP1 mRNA in LAN5 cells was 0.18.

With `CN(C)c1cccc2c(S(=O)(=O)n3cc(C4=CC(=O)NC4=O)c4cc(Br)ccc43)cccc12` [Compound 63, 3-(N-dansyl-5-bromoindol-3-yl)-1H-pyrrole-2,5-dione], the “Fold Induction” value in the series on HIAP1 mRNA in LAN5 cells was determined as 0.22.

Turning to `CC(C)(C)OC(=O)NCC(=O)n1cc(C2=CC(=O)NC2=O)c2cc(OCc3ccccc3)ccc21` [Compound 69, 3-(N-(N-Boc-2-aminoacetyl)-5-benzyloxyindol-3-yl)-1H-pyrrole-2,5-dione], the “% SHSY-5Y cell survival” value with SHSY-5Y cells (drug 1 μM) is 5.6%.

For the compound `O=C1C=C(c2cn(S(=O)(=O)c3ccc([N+](=O)[O-])cc3)c3ccc(OCc4ccccc4)cc23)C(=O)N1` [Compound 71, 3-(N-(4-nitrobenzenesulfonyl)-5-benzyloxyindol-3-yl)-1H-pyrrole-2,5-dione], in the series on SHSY-5Y cells (drug 10 μM), the “% SHSY-5Y cell survival” value was found to be 26.4%.

Regarding `O=C1C=C(c2cn(Cc3ccc(F)cc3)c3ccc(OCc4ccccc4)cc23)C(=O)N1` [Compound 77, 3-(N-(4-fluorobenzyl)-5-benzyloxyindol-3-yl)-1H-pyrrole-2,5-dione], the pIC50 with CGNs [2] (Mus musculus) is 5.00.

Consider `O=C1C=C(c2cn(S(=O)(=O)c3ccccc3[N+](=O)[O-])c3ccccc23)C(=O)N1` [Compound 95, 3-(N-(2-nitrobenzenesulfonyl)indol-3-yl)-1H-pyrrole-2,5-dione], for which the pIC50 in the series with CGNs [2] (Mus musculus) was 5.00.

For the compound `O=C1C=C(c2cn(S(=O)(=O)c3ccc([N+](=O)[O-])cc3)c3ccccc23)C(=O)N1` [Compound 96, 3-(N-(4-nitrobenzenesulfonyl)indol-3-yl)-1H-pyrrole-2,5-dione], the negative logarithm of the IC50 (pIC50) in the series on CGNs [2] (Mus musculus) is 5.00.

Take `N=C(N)SCCCn1c2ccccc2c2c3c(n4c5ccccc5cc4c21)C(=O)NC3=O` [Compound 145]: in the series with Jurkat cells (compound dose 3 (μM)), the “Survival % With Anti-Fas” value was determined as 34.9% and the “Survival % Without Anti-Fas” value turned out to be 92.44%. The “Survival % Without Anti-Fas” value in the series with Jurkat cells (compound dose 10 (μM)) amounted to 11%.

Consider `Cc1cn(C2=C(c3cn(CCCSC(=N)N)c4ccccc34)C(=O)NC2=O)c2ccccc12` [Compound 146], for which the “Survival % With Anti-Fas” value in the series on Jurkat cells (compound dose 3 (μM)) is given as 19.7%. In addition, the “Survival % Without Anti-Fas” value with Jurkat cells (compound dose 3 (μM)) is reported as above 90%; in the series with Jurkat cells (compound dose 10 (μM)) it was 0%.

On to `N=C(N)SCCCn1cc(C2=C(n3ccc4cc(OCc5ccccc5)ccc43)C(=O)NC2=O)c2ccccc21` [Compound 147], for which, in the series on Jurkat cells (compound dose 3 (μM)), the “Survival % With Anti-Fas” value was found to be 19.7% and the “Survival % Without Anti-Fas” value was above 90%. In addition, in the series with Jurkat cells (compound dose 10 (μM)), the “Survival % Without Anti-Fas” value amounted to 0%.

Turning to `N=C(N)SCCCn1cc(C2=C(n3ccc4ccccc43)C(=O)NC2=O)c2cc(OCc3ccccc3)ccc21` [Compound 148], in the series on Jurkat cells (compound dose 3 (μM)), the “Survival % Without Anti-Fas” value was above 90%. Moreover, in the series with Jurkat cells (compound dose 10 (μM)), the “Survival % With Anti-Fas” value is given as 19.7% and the “Survival % Without Anti-Fas” value is on record as 0%.

In the case of `Cc1cn(C2=C(c3cn(CCCSC(=N)N)c4ccc(OCc5ccccc5)cc34)C(=O)NC2=O)c2ccccc12` [Compound 149], in the series on Jurkat cells (compound dose 3 (μM)), the “Survival % With Anti-Fas” value is on record as 2.00% and the “Survival % Without Anti-Fas” value is given as above 90%. The “Survival % Without Anti-Fas” value in the series with Jurkat cells (compound dose 10 (μM)) is 0%.

With `Cc1cc2ccccc2n1C1=C(c2cn(CCCSC(=N)N)c3ccc(OCc4ccccc4)cc23)C(=O)NC1=O` [Compound 150], in the series with Jurkat cells (compound dose 3 (μM)), the “Survival % With Anti-Fas” value is on record as 4.49% and the “Survival % Without Anti-Fas” value is given as above 90%. In the series on Jurkat cells (compound dose 10 (μM)), the “Survival % Without Anti-Fas” value stood at 0%.

Take `N=C(N)SCCCn1cc(C2=C(N3CCc4ccccc43)C(=O)NC2=O)c2ccccc21` [Compound 159]: in the series with Jurkat cells (compound dose 3 (μM)), the “Survival % With Anti-Fas” value was 9.48% and the “Survival % Without Anti-Fas” value is listed as above 90%. In the series on Jurkat cells (compound dose 10 (μM)), the “Survival % Without Anti-Fas” value is 17.38%.

With `Cn1cc(C2=C(n3cc(CCCSC(=N)N)c4ccccc43)C(=O)NC2=O)c2ccccc21` [Compound 167], the “Survival % With Anti-Fas” value worked out at 43.3% with Jurkat cells (compound dose 0.3 (μM)); 16.7% with Jurkat cells (compound dose 1 (μM)); 4.9% in the series with Jurkat cells (compound dose 3 (μM)); 0% with Jurkat cells (compound dose 10 (μM)); 0% in the series on Jurkat cells (compound dose 30 (μM)). Besides, the “Survival % Without Anti-Fas” value in the series with Jurkat cells (compound dose 0.3 (μM)) amounted to 97.7%; in the series with Jurkat cells (compound dose 1 (μM)), 88.3%; with Jurkat cells (compound dose 3 (μM)) it was 50.3%; in the series with Jurkat cells (compound dose 10 (μM)), 0%; with Jurkat cells (compound dose 30 (μM)), 0%.

For `Cn1cc(C2=C(n3cc(CCCSC(=N)N)c4ccccc43)C(=O)NC2=O)c2cc(OCc3ccccc3)ccc21` [Compound 168], the “Survival % With Anti-Fas” value with Jurkat cells (compound dose 0.3 (μM)) was 49.0%; in the series on Jurkat cells (compound dose 1 (μM)), 48.6%; with Jurkat cells (compound dose 3 (μM)), 1%; in the series with Jurkat cells (compound dose 10 (μM)) it was 0%; in the series on Jurkat cells (compound dose 30 (μM)), 0%. For the same compound, the “Survival % Without Anti-Fas” value is 90.7% with Jurkat cells (compound dose 0.3 (μM)); 89.3% in the series with Jurkat cells (compound dose 1 (μM)); 46.1% with Jurkat cells (compound dose 3 (μM)); 1.2% in the series on Jurkat cells (compound dose 10 (μM)); 0% in the series on Jurkat cells (compound dose 30 (μM)).

Take `COc1ccc2[nH]cc(CCNC(C)=O)c2c1` [melatonin, Melatonin, reference compound]: the “protection of CGNs” value with CGNs [1] (high doses) is “protect CGNs”.
